Test results as given in US8597664B2, “Endogenous adjuvant molecules and uses thereof” (University of Massachusetts, priority 2003, dated 2013).

Tests used:
[1] = tested on: CD8 T cell (CTL) responses to particulate HIV gp120 antigen; assay: CTL priming after co-injection of adjuvant with gp120/latex beads (51Cr-release CTL assay); assay type: in vivo, Balb/c mice
Experimental: Immunization of mice with antigen-polystyrene beads (2-10 μg) +/− cytosolic fractions and assays for the priming of CTL were performed as previously described ^16. Fractions from the GF-250 column were injected without further manipulation, while fractions from all other columns were dried and reconstituted to normal osmolarity before injection. Fractions from 1%-10% of liver cytosol were typically injected into mice. Pooled fractions without adjuvant activity were standardly used as negative controls. For in vitro stimulation, splenocytes from immunized mice were stimulated directly with 10^−8 M peptide (RGPGRAFVTL-SEQ ID NO: 1 or SIINFEKL-SEQ ID NO: 2) and were then assayed as previously described.^16
Each four consecutive fractions (4 minutes) were pooled and tested for their ability to augment the priming of CD8 T cell responses when co-injected with particulate HIV gp120 antigen. After 14 days, splenocytes were harvested from the primed animals and were stimulated ex vivo with either antigen-transfected or peptide-pulsed syngeneic cells. The re-stimulated cells were then assayed for their ability to kill antigen-bearing target cells in a standard ^51Cr-release as say.^16
To further evaluate this point, highly purified uric acid was tested for adjuvant activity. Highly purified uric acid (50 μg), highly purified LMW fraction from a C18 column, or PBS as control were mixed with 5 μg gp120/latex beads in 100 μl of saline and injected into two Balb/c mice. CTL from these mice were assayed for killing of 15.12 (gp120-transfected 3T3) cells (filled triangles), or vector-transfected control 3T3 cells (open squares). Results from individual mice are presented (FIG. 3A-C, wherein % Lysis indicates the degree of cell killing and the E:T ratio indicates the ratio of Effector cell:Target cell, e.g., the ratio of cytotoxic T-cell: antigen positive target cell).
To determine more precisely the amount of uric acid necessary to provide an adjuvant effect in vivo, the amount of uric acid injected into mice was titrated from 2.5-40 μg (in 100 μl; from a concentration of 25-400 μg/ml) and adjuvant activity assayed as described in Example II above. […] This amount of uric acid is produced by about 2×10^6 UV-treated 3T3 cells (See FIG. 3J).
To further evaluate the activity of xanthine crystals, xanthine crystals were tested for adjuvant activity in experiments carried out similarly to those described in Example II above. Highly purified uric acid (500 μg), highly purified xanthine (500 μg), or PBS as control were mixed with 2 μg gp120/latex beads in 100 μl of saline and injected into two Balb/c mice. CTL from these mice were assayed for killing of 15.12 (gp120-transfected 3T3) cells (filled squares). Results from individual mice are presented (FIG. 6A-C), wherein % Lysis indicates the degree of cell killing and the E:T ratio indicates the ratio of Effector cell:Target cell, e.g., the ratio of cytotoxic T-cell:antigen presenting cell.

dendritic cells = assay: Expression of CD80 and CD86 on dendritic cells from TLR4+/+ or TLR4-/- mice; assay type: cell-based, C57BL/6 (TLR4+/+) or C.C3H lps-d (TLR4-/-) mice; details: 6 hours
Experimental: (§1) Bone marrow was cultured for 7 days in media containing 10 u/ml of both GM-CSF and IL-4, as previously described.^24 Fresh media (50% volume) containing cytokines was added at the 4th day of culture. At day 7, floating cells were removed by aspiration after gentle rocking, and soluble or crystalline uric acid was added. Following a 6 hour incubation, the media was gently removed and replaced with PBS containing either 0.5% heparin (sigma) or 0.5 μM polyvinyl sulfate (100 KD, Sigma) in order to detach bound crystals. Following a 10 minute incubation, cells were gently removed by scraping, washed once in 50 ml of media and 3 times with 50 ml of PBS in order to dissolve any remaining crystals, and then stained and assayed by flow cytometry as previously described.^15 To quantify MSU crystal formation in culture, a parallel set of wells was prepared without dendritic cells, and the crystals harvested by centrifugation, washed with absolute alcohol and dissolved in 0.1N NaOH. The amount of uric acid in the solubilized precipitates was determined by measuring UV absorption at 292 nm against a set of standard uric acid/NaOH solutions.
As discussed in Example III, LPS has a stimulatory activity and is frequently a contaminant of reagents. Dendritic cells from the TLR4-null mice were examined to verify that LPS was not the source of the observed stimulatory activity.

EL4 cells = assay: Uric acid measurement in the cytosol of treated cells; assay type: cell-based; details: 25 μg/ml cycloheximide or 8 μM emetine, after 5 hours; untreated cells below limit of detection
Experimental: EL4 cells (10^8) were resuspended in 5 ml of culture media and incubated at 37° C. for 5 hours after being treated for one hour with emetine^16 or cycloheximide or heat shocked for 20 minutes at 45° C. (see FIG. 3J). 3T3 cells grown in 15 cm dishes were either untreated or exposed to UV light for 5 minutes and incubated in 5 hours. The cells were suspended without washing and disrupted by nitrogen cavitation followed by centrifugation, as described.^16 The resulting supernatants were diluted with 0.1 M borate, and analyzed for uric acid content using a uric acid detection kit (Molecular Probes).
EL4 cells were either heat shocked for 20 minutes at 45° C., incubated with 25 μg/ml cycloheximide, incubated with 8 μM emetine or untreated as control. 3T3 cells were either UV-irradiated or untreated as control. These treatments were previously shown by the instant inventors to increase adjuvant activity. The amount of uric acid in the cytosol of the treated cells was determined after 5 hours of incubation. […] An approximately 4-fold increase in uric acid was also observed when 3T3 cells were treated with UV (FIG. 3J).

[2] = tested on: CD8 T cell (CTL) responses to particulate HIV gp120 antigen; assay: CTL priming after co-injection with antigen in LPS-nonresponsive TLR4 null mice; assay type: in vivo, C.C3H lps-d (TLR4-/-) mice; details: injected together with antigen
Experimental: Lipopolysaccharide (LPS) has potent immunostimulatory activity and is a frequent contaminant of buffers and other reagents. Although every attempt was made to avoid contamination of preparations with endotoxin, it was important to exclude the possibility that LPS was present in the LMW fraction and responsible for the adjuvant activity. Accordingly, similar experiments to those of Example II were carried out except that purified LMW fraction or commercially-obtained highly purified uric acid was injected together with antigen into toll-like receptor 4 (TLR4) null mice, which are nonresponsive to LPS. Specifically, congenic C.C3H lps-d (TLR4−/−) mice were used in place of Balb/c (TLR4+/+) mice.

[3] = Toxicity observed in the Examples; assay type: in vivo; details: as used in the Examples
Source text: With respect to potential toxicity of the crystalline adjuvant, local reaction to injections or other morbidity of animals immunized with any adjuvant within the scope of the invention, e.g., a crystalline adjuvant, can be readily determined. With respect to the crystalline adjuvants of the present invention displaying characteristics similar to uric acid or xanthine, significant toxicity is not expected. […] Uric acid and xanthine are normal components of mammals and local administration should be relatively safe. Uric acid is effective when injected subcutaneously, which is an effective and well tolerated immunization protocol. Uric acid and xanthine thus have favorable characteristics for an adjuvant, and crystalline molecules having similar characteristics, such as those described herein, are also expected to behave favorably as immune adjuvants.

[4] = reported (ref. 18); cited from earlier work
[5] = tested on: bone marrow-derived dendritic cells (CD11c+); assay: Expression of CD80 and CD86 on bone marrow-derived dendritic cells by flow cytometry; assay type: cell-based, Balb/c mice
Experimental: as §1
Accordingly, the effect of uric acid on expression of costimulators on cultured dendritic cells was tested. Uric acid was added to cultures of primary bone-marrow derived dendritic cells. Specifically, bone marrow-derived dendritic cells from Balb/c mice in 6 well plates were untreated (thin continuous line) or incubated with 20 μl of pre-formed MSU crystals (about 1.2 mg/ml final concentration) for 6 hours (heavy dashed lines) or 24 hours (heavy continuous lines). The expression of CD80 and CD86 on CD11c+ cells was then analyzed by flow cytometry.
Based upon the results set forth in Examples I-VI which identify MSU crystals as having adjuvant activity, it was concluded that other crystals with similar properties should display djuvant activity. […] The expression of CD86 on CD11c+ cells was then analyzed by flow cytometry.

[6] = Precipitation of uric acid to MSU crystals; assay type: physicochemical; details: uric acid 70 μg/ml
Experimental: as §1
As discussed in Example III, LPS has a stimulatory activity and is frequently a contaminant of reagents. Dendritic cells from the TLR4-null mice were examined to verify that LPS was not the source of the observed stimulatory activity. […]

## O=c1[nH]c(=O)c2[nH]c([O-])nc2[nH]1.[Na+] [MSU crystals, monosodium urate]
[1]; preformed MSU crystals
  activity of preformed crystals injected in vivo: active
Dendritic cells; C.C3H lps-d (TLR4-/-) cells
  stimulatory effect on dendritic cells from TLR4-null mice: the stimulatory effect was also found
Dendritic cells; MSU crystals about 1.2 mg/ml versus 1 μg/ml LPS
  stimulatory effect on dendritic cells (CD80, CD86) compared with LPS: stronger than that induced by high concentrations of LPS
Dendritic cells; preformed MSU crystals about 1.2 mg/ml, soluble uric acid 70 μg/ml
  stimulation of dendritic cells in vitro, preformed crystals versus soluble uric acid: highly stimulatory

## C[C@@H]1C[C@@H]([C@H](O)CC2CC(=O)NC(=O)C2)C(=O)[C@@H](C)C1 [cycloheximide]
EL4 cells
  uric acid in the cytosol of treated EL4 cells: increased dramatically

## CC[C@H]1CN2CCc3cc(OC)c(OC)cc3[C@@H]2C[C@@H]1C[C@H]1NCCc2cc(OC)c(OC)cc21 [emetine]
EL4 cells
  uric acid in the cytosol of treated EL4 cells: increased dramatically

## O=c1[nH]c(=O)c2[nH]c(=O)[nH]c2[nH]1 [uric acid]
[1]; 50 μg uric acid mixed with 5 μg gp120/latex beads in 100 μl saline
  CTL priming: enhanced CTL priming to a similar degree as the purified LMW fraction
[1]; 10-50 μg of uric acid in 100 μl
  adjuvant effect: strong adjuvant effect
[1]; titrated from 2.5-40 μg in 100 μl
  amount of uric acid providing an adjuvant effect when injected in vivo: about 10 μg
[1]; titrated from 25-400 μg/ml, 100 μl injected
  concentration of uric acid providing an adjuvant effect when injected in vivo: ~100 µg/mL
[2]
  adjuvant activity in LPS-nonresponsive mice: had adjuvant activity
[3]
  toxicity: have not been observed
[4]
  concentration at which uric acid precipitates in vivo: > 70 µg/mL
[5]; 20 μl pre-formed MSU crystals (about 1.2 mg/ml final), 6 or 24 hours
  expression of CD86 on CD11c+ dendritic cells: markedly and rapidly
[5]; uric acid titrated in culture, 24 hours
  correlation of dendritic cell activation (CD86) with crystal formation: stimulated at precisely the concentrations of uric acid that led to crystal formation
[6]
  crystal precipitation in dendritic cell culture: crystals do not precipitate within 6 hours

## O=c1[nH]c(=O)c2[nH]cnc2[nH]1 [xanthine]
[1]; 500 μg crystals mixed with 2 μg gp120/latex beads in 100 μl saline
  CTL priming: enhanced CTL priming to a similar degree as the MSU crystals
[3]
  toxicity: have not been observed
[5]; pre-formed crystals at 300 μg/ml final concentration, 6 hours
  expression of CD86 on CD11c+ dendritic cells: increase their expression of CD86 markedly
